US9034336B2, “Immunomodulators and immunomodulator conjugates” (Regents of the University of Minnesota, priority 2011, dated 2015)

What was measured:
[1] = biological target: T1, human TLR7 (Homo sapiens, UniProt Q9NYK1); assay: TLR7/8-NF-κB reporter assay (HEK-TLR7, SEAP); type: cell-based; conditions: HEK-TLR7 cells, 24 hrs; for EC50: read-out: EC50 of TLR7 (mean ± SD)
T1 construct: host or cells: HEK (HEK293) cells with NF-kB-responsive SEAP reporter
T1 sequence (Q9NYK1 27-1049): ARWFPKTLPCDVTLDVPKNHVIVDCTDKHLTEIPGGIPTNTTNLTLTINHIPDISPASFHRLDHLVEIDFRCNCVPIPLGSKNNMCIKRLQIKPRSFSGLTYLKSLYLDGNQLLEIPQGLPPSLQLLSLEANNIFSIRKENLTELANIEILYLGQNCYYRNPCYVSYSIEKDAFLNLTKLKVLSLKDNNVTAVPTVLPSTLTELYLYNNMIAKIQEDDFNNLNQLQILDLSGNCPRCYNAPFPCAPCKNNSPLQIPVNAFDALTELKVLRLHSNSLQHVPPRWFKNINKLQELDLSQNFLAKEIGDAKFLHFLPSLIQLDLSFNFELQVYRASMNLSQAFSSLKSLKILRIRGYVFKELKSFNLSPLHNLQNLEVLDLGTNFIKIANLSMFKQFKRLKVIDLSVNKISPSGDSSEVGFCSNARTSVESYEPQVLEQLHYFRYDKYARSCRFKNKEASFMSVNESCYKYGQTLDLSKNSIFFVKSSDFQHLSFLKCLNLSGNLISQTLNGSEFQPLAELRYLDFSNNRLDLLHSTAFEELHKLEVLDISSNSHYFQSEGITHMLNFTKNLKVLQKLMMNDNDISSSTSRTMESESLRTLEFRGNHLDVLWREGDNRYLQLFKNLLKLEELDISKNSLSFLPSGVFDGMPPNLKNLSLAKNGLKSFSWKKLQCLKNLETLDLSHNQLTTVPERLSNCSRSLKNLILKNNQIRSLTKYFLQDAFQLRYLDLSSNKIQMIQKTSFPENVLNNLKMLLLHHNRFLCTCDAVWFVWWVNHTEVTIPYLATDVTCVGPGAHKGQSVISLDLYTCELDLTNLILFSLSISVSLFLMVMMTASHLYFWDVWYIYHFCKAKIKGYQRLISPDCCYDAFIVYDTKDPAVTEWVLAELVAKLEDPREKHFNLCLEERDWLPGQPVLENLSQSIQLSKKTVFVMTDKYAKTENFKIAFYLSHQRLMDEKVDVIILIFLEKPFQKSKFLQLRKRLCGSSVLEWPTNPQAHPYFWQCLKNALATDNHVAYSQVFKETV
Experimental: (§1) Human embryonic kidney (HEK) cells that were stably transfected with human TLR7 or TLR8 and an NF-κB—responsive secreted embryonic alkaline phosphatase (SEAP) gene (HEK-TLR7/8) were purchased from InvivoGen (San Diego, Calif.). The procedure used to measure TLR7 or TLR8 agonist activity was conducted as described by Hood et al. (Hood J. D, et al., Human Vaccines, 2010, 6, 4, 322-335). Briefly, HEK-TLR7/8 cells were stimulated with 3.3 or 30 μM of compound in a 96-well plate in DMEM containing 10% FBS and 0.01% Normocin (InvivoGen) for 24 hrs. Twenty microliters of the supernatant from each well was incubated with Quanti-blue substrate solution (InvivoGen) at 37° C. for 1 hour and absorbance was read at 650 nm using a Synergy plate reader (Biotek, Winooski, Vt.).

[2] = biological target: T2, human TLR8 (Homo sapiens, UniProt Q9NR97); assay: TLR7/8-NF-κB reporter assay (HEK-TLR8, SEAP); type: cell-based; conditions: HEK-TLR8 cells, 24 hrs, read-out: EC50 of TLR8 (mean ± SD)
T2 construct: host or cells: HEK (HEK293) cells with NF-kB-responsive SEAP reporter
T2 sequence (Q9NR97 27-1041): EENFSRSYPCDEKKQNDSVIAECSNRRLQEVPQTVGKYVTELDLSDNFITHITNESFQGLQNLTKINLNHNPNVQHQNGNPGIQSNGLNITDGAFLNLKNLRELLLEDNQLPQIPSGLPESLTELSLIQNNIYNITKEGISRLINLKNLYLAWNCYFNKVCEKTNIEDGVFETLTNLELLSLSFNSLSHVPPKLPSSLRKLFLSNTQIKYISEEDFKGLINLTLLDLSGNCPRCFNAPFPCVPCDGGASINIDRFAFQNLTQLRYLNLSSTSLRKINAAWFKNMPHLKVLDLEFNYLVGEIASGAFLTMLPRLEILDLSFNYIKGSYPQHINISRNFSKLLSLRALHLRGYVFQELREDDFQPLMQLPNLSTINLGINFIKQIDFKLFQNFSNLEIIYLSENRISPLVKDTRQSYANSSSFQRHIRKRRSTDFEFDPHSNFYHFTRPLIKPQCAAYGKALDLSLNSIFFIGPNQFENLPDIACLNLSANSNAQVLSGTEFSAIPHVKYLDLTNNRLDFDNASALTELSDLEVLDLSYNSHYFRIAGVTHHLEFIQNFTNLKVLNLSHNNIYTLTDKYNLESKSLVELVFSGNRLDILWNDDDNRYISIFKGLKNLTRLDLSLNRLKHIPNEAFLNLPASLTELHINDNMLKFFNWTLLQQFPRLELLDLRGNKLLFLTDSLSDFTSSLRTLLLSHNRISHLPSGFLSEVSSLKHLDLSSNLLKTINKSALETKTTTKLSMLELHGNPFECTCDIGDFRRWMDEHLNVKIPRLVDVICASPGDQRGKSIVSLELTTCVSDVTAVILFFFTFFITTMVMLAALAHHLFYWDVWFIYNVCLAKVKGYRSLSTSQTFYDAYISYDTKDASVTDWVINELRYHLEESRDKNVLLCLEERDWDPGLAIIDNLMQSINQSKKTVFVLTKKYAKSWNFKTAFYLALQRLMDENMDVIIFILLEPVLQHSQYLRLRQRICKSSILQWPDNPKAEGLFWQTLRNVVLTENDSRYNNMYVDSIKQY
Experimental: as §1

| Structure (SMILES) | EC50 of TLR7 (mean ± SD) [1] | EC50 [2] [µM] | EC50 [1] [µM] |
| --- | --- | --- | --- |
| COC(=O)c1ccc2c(c1)nc(N)c1ncn(CC(C)(C)O)c12 [Compound 421, 4-amino-1-(2-hydroxy-2-methylpropyl)-7-methoxycarbonyl-1H-imidazo[4,5-c]quinoline] | NO EC50 | – | – |
| COC(=O)c1ccc2nc(N)c3ncn(CC(C)C)c3c2c1 [Compound 504, 4-amino-1-isobutyl-8-methoxycarbonyl-1H-imidazo[4,5-c]quinoline] | – | 21.2 ± 19.9 | 21.2 ± 5.22 |
| CCOC(=O)c1ccc2c(c1)nc(N)c1ncn(CC(C)C)c12 [Compound 511, 4-Amino-7-ethoxycarbonyl-1-(2-methylpropyl)-1H-imidazo[4,5-c]quinoline] | – | – | 7.92 ± 1.49 |
| COC(=O)c1ccc2c(c1)nc(N)c1nc(C)n(CC(C)(C)O)c12 [Compound 516, 4-amino-1-(2-hydroxy-2-methylpropyl)-7-methoxycarbonyl-2-methyl-1H-imidazo[4,5-c]quinoline] | – | – | 49.2 ± 17.3 |
| CCc1nc2c(N)nc3cc(C(=O)OC)ccc3c2n1CC(C)(C)O [Compound 517, 4-amino-2-ethyl-1-(2-hydroxy-2-methylpropyl)-7-methoxycarbonyl-1H-imidazo[4,5-c]quinoline] | – | – | 29.1 ± 4.33 |
| CCCc1nc2c(N)nc3cc(C(=O)OC)ccc3c2n1CC(C)(C)O [Compound 518, 4-amino-1-(2-hydroxy-2-methylpropyl)-7-methoxycarbonyl-2-propyl-1H-imidazo[4,5-c]quinoline] | – | – | 23.8 ± 4.34 |
| CCCCc1nc2c(N)nc3cc(C(=O)OCC)ccc3c2n1CC(C)(C)O [Compound 525, 4-Amino-2-butyl-1-(2-hydroxyl-2-methylprop-yl)-7-ethoxycarbonyl-1H-imidazo[4,5-c]quinoline] | – | 19.9 ± 1.04 | 2.21 ± 0.44 |
| CCCCc1nc2c(N)nc3cc(C(=O)OC(C)C)ccc3c2n1CC(C)(C)O [Compound 526] | – | 17.2 ± 5.33 | 3.94 ± 0.25 |
| CCCCc1nc2c(N)nc3cc(C(=O)OC(C)C)ccc3c2n1CC(C)O (centres unmarked) [Compound 530, 4-Amino-2-butyl-1-(2-hydroxypropyl)-7-isopropoxycarbonyl-1H-imidazo[4,5-c]quinoline] | – | 5.82 ± 0.2 | 2.5 ± 0.15 |
| COCCc1nc2c(N)nc3cc(C(=O)OC)ccc3c2n1CC(C)O (centres unmarked) [Compound 536, 4-Amino-1-(2-hydroxypropyl)-2-(2-methoxyethyl)-7-carboxylate-1H-imidazo[4,5-c]quinoline] | – | 31.7 ± 1.54 | 20.2 ± 4.11 |

The remaining lines, values ahead:

| EC50 of TLR7 (mean ± SD) [1] | EC50 [2] [µM] | EC50 [1] [µM] | Structure (SMILES) |
| --- | --- | --- | --- |
| NO EC50 | – | – | COC(=O)c1ccc2c(c1)nc(N)c1ncn(Cc3ccccc3)c12 [Compound 422, 4-amino-1-benzyl--7-methoxycarbonyl-1H-imidazo[4,5-c]quinoline] |
| – | 31 ± 10.6 | 2.42 ± 0.19 | CCCCc1nc2c(N)nc3cc(C(=O)OC)ccc3c2n1CCOCc1ccccc1 [Compound 520, 4-Amino-1-(2-(benzyloxy)ethyl)-2-butyl-7-methoxycarbonyl 1H-imidazo[4,5-c]quinoline] |
| – | – | 5.67 ± 0.81 | CCCCc1nc2c(N)nc3cc(C(=O)OC)ccc3c2n1CCOC [Compound 521, 4-Amino-2-butyl-1-(2-methoxyethyl)-7-methoxycarbonyl-1H-imidazo[4,5-c]quinolone] |
| – | 7.15 ± 0.29 | 2.6 ± 0.18 | CCCCCc1nc2c(N)nc3cc(C(=O)OC)ccc3c2n1CC(C)(C)O [Compound 527, 4-Amino-1-(2-hydroxyl-2-methylpropyl)-7-methoxy carbonyl-2-pentyl-1H-imidazo[4,5-c]quinoline] |
| – | 4.41 ± 0.49 | 22.9 ± 5.28 | CCCCc1nc2c(N)nc3cc(C(=O)OC)ccc3c2n1CCO [Compound 529, 4-Amino-2-butyl-1-(2-hydroxyethyl)-7-methoxycarbonyl-1H-imidazo[4,5-c]quinoline] |
| – | 4.73 ± 0.55 | 5.23 ± 0.16 | CCCCc1nc2c(N)nc3cc(C(=O)OCC)ccc3c2n1CC(C)O (centres unmarked) [Compound 531, 4-Amino-2-butyl-1-(2-hydroxypropyl)-7-ethoxycarbonyl-1H-imidazo[4,5-c]quinoline] |
| – | – | 4.79 ± 0.46 | COC(=O)c1ccc2c(c1)nc(N)c1nc(Cc3ccccc3)n(CC(C)(C)O)c12 [Compound 535, 4-Amino-2-benzyl-1-(2-hydroxyl-2-methylprop-yl)-7-methoxycarbonyl-1H-imidazo[4,5-c]quinoline] |
